Data: ChEMBL document CHEMBL1143634, “Calculating virtual log P in the alkane/water system (log P(N)(alk)) and its derived parameters deltalog P(N)(oct-alk) and log D(pH)(alk)” (J Med Chem, 2005)

Assay: Lipophilicity determined as logarithm of the partition coefficient in the alkane/water system
Conditions: octanol/water

| Compound | Log PNalk |
| --- | --- |
| C[C@]12CCC(=O)C=C1CC[C@@H]1[C@@H]2CC[C@@]2(C)[C@H]1CC[C@]2(O)C(=O)CO [CORTODOXONE] | -1 |
| C[C@]12CC[C@H]3[C@@H](CCC4=CC(=O)CC[C@@]43C)[C@@H]1CC[C@@H]2C(=O)CO [DESOXYCORTICOSTERONE] | 0.48 |
| O=C([O-])Cc1ccccc1Nc1c(Cl)cccc1Cl.[Na+] [DICLOFENAC SODIUM] | 1.72 |
| COc1ccc([C@@H]2Sc3ccccc3N(CCN(C)C)C(=O)[C@@H]2OC(C)=O)cc1 [DILTIAZEM] | 1.37 |
| CN[C@@H](C)[C@H](O)c1ccccc1 [EPHEDRINE] | -0.77 |
| NC1=NCC2c3ccccc3Cc3ccccc3N12 (stereo not drawn) [EPINASTINE] | 1.76 |
| C[C@]12CC[C@@H]3c4ccc(O)cc4CC[C@H]3[C@@H]1CC[C@@H]2O [ESTRADIOL] | -0.2 |
| C[C@]12CC[C@@H]3c4ccc(O)cc4CC[C@H]3[C@@H]1C[C@@H](O)[C@@H]2O [ESTRIOL] | -0.64 |
| C[C@]12CC[C@@H]3c4ccc(O)cc4CC[C@H]3[C@@H]1CCC2=O [ESTRONE] | 0.48 |
| CCOC(C)=O [ETHYL ACETATE] | 0.29 |
| CCN [ETHYLAMINE] | -1.77 |
| CC1CCc2cc(F)cc3c(=O)c(C(=O)O)cn1c23 (stereo not drawn) [FLUMEQUINE] | -1.37 |
| Fc1ccccc1 [FLUOROBENZENE] | 2.46 |
| CC(C(=O)O)c1ccc(-c2ccccc2)c(F)c1 (stereo not drawn) [FLURBIPROFEN] | 1.49 |
| COc1ccccc1O [GUAIACOL] | 0.36 |
| N=C(N)N/N=C/c1c(Cl)cccc1Cl [GUANABENZ] | -1.6 |
| O=C(CCCN1CCC(O)(c2ccc(Cl)cc2)CC1)c1ccc(F)cc1 [HALOPERIDOL] | 1.53 |
| CCCCCC(=O)O [HEXANOATE] | 0.24 |
| CN1C(=O)NC(=O)C(C)(C2=CCCCC2)C1=O (stereo not drawn) [HEXOBARBITAL] | -0.57 |
| OCCOCCN1CCN(C(c2ccccc2)c2ccc(Cl)cc2)CC1 (stereo not drawn) [HYDROXYZINE] | 1.25 |
| CC(C)Cc1ccc(C(C)C(=O)O)cc1 (stereo not drawn) [IBUPROFEN] | 2.08 |

| Compound | Log PNalk |
| --- | --- |
| c1ccc2[nH]ccc2c1 [INDOLE] | 0.68 |
| COc1ccc2c(c1)c(CC(=O)O)c(C)n2C(=O)c1ccc(Cl)cc1 [INDOMETHACIN] | 0.98 |
| Ic1ccccc1 [IODOBENZENE] | 3.33 |
| CC(C)CO [ISOBUTANOL] | -0.98 |
| c1ccc2cnccc2c1 [ISOQUINOLINE] | 1.11 |
| CC(C(=O)O)c1cccc(C(=O)c2ccccc2)c1 (stereo not drawn) [KETOPROFEN] | 0 |
| COc1ccc(O)cc1 [MEQUINOL] | -1.03 |
| Cc1cccc(O)c1 [METACRESOL] | -0.35 |
| CN[C@@H](C)Cc1ccccc1 [METHAMPHETAMINE] | 1.24 |
| CO [METHYL ALCOHOL] | -2.8 |
| COC(=O)c1ccccc1 [METHYL BENZOATE] | 2.13 |
| CS(=O)(=O)c1ccccc1 [METHYLPHENYLSULFONE] | -0.87 |
| C[S+]([O-])c1ccccc1 (stereo not drawn) [METHYLPHENYLSULFOXIDE] | -1.52 |
| COCCc1ccc(OCC(O)CNC(C)C)cc1 (stereo not drawn) [METOPROLOL] | -0.38 |
| CN1CCC[C@H]1c1cccnc1 [NICOTINE] | 0.03 |
| O=[N+]([O-])c1ccc(/C=N/O)o1 [NIFUROXIME] | -1.1 |
| O=[N+]([O-])c1ccccc1 [NITROBENZENE] | 1.55 |
| O=[N+]([O-])c1ccccc1O [NITROPHENOLATE] | 1.04 |
| Cc1ccccc1N [O-TOLYLAMINE] | 0.47 |
| Cc1ccccc1O [ORTHOCRESOL] | 0.25 |
| O=[N+]([O-])c1ccc(O)cc1 [P-NITROPHENOL] | -2.15 |

| Compound | Log PNalk |
| --- | --- |
| COc1ccc(Cc2nccc3cc(OC)c(OC)cc23)cc1OC [PAPAVERINE] | 0.75 |
| O=C(O)c1ccc(O)cc1 [PARABEN] | -1.82 |
| Oc1ccc(Cl)cc1 [PARACHLOROPHENOL] | -0.12 |
| CC(C)(C)NC[C@H](O)COc1ccccc1C1CCCC1 [PENBUTOLOL] | 3.06 |
| CCCCC [PENTANE] | 4.18 |
| CCCC(C)C1(CC)C(=O)NC(=O)NC1=O (stereo not drawn) [PENTOBARBITAL] | -1.22 |
| Nc1ccc(/N=N/c2ccccc2)c(N)n1 [PHENAZOPYRIDINE] | 0.42 |
| CCC1(c2ccccc2)C(=O)NC(=O)NC1=O [PHENOBARBITAL] | -2.75 |
| Oc1ccccc1 [PHENOL] | -0.82 |
| O=C(O)Cc1ccccc1 [PHENYLACETIC ACID] | -1.6 |
| O=C1NC(=O)C(c2ccccc2)(c2ccccc2)N1 [PHENYTOIN] | -0.3 |
| CNC(=O)Oc1ccc2c(c1)[C@]1(C)CCN(C)[C@@H]1N2C [PHYSOSTIGMINE] | -0.46 |
| CC(=O)[C@H]1CC[C@H]2[C@@H]3CC=C4C[C@@H](O)CC[C@]4(C)[C@H]3CC[C@]12C [PREGNENOLONE] | 0.62 |
| CCN(CC)CCOC(=O)c1ccc(N)cc1 [PROCAINE] | -0.67 |
| CC(=O)[C@H]1CC[C@H]2[C@@H]3CCC4=CC(=O)CC[C@]4(C)[C@H]3CC[C@]12C [PROGESTERONE] | 1.23 |
| CCC(=O)O [PROPIONIC ACID] | -2.14 |
| COc1ccc(CN(CCN(C)C)c2ccccn2)cc1 [PYRILAMINE] | 2 |
| c1ccc2ncccc2c1 [QUINOLINE] | 1.26 |
| O=C(O)c1ccccc1O [SALICYLIC ACID] | -0.92 |
| C=CCC1(C(C)CCC)C(=O)NC(=O)NC1=O (stereo not drawn) [SECOBARBITAL] | -0.99 |
| Cc1ccc(Cc2cnc(NCCCCc3ncc(Br)cc3C)[nH]c2=O)cn1 [TEMELASTINE] | 1.28 |
